Measurements taken from US20060014673A1 (priority 1998, published 2006).
Read-outs that look alike come from different tables or passages of the source.

Legend:
[1] = tested on: Primary cultures of neonatal rat cortex; type: cell-based
[2] = tested on: Primary cultures of neonatal rat cortex; type: cell-based; remark: listed apart in the source

Molecule | effect on intracellular calcium [1] | potency in non-depolarized compared with depolarized cultures [1] | effect on intracellular calcium ([2]; depolarized conditions (aconitine), substance alone) | effect on intracellular calcium [2]
Nc1ccncc1 [4-AP, 4-aminopyridine] | significant effect | slightly less potent | induces an increase in intracellular calcium | 
dendrotoxin |  |  |  | caused an increase in intracellular calcium
